Results from US6914045B2, “Glycopeptide antibiotics” (Wyeth Holdings Corporation, priority 2001, dated 2005).
Values after ≈ are worked out from the molar mass of the structure shown.

Columns and labels:
Assay in all cases: in vitro antibacterial evaluation, MIC by broth dilution
Format in all cases: cell-based
[1] = test system: Streptococcus sp.; conditions: broth dilution, 18 hours at 35° C.
Outline: (§1)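 Read-out: the lowest concentration at which the test strain fails to grow. Serial dilutions (64-0.06 μg/mL) in Muller-Hinton II […], 5×10^5 CFU/mL inoculum, NCCLS M7-A2 procedure.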

[2] = test system: Staphylococcus sp.; conditions: broth dilution, 18 hours at 35° C.
Outline: as §1

[3] = test system: Escherichia coli; conditions: 18 hours at 35° C.
Outline: as §1

[4] = test system: Enterococcus sp.; conditions: broth dilution, 18 hours at 35° C.
Outline: as §1

CC(c1ccccc1)C1NC(=O)CNC(=O)C(CO)NC(=O)C(C(O)C2CNC(=N)N2C2OC(CO)C(O)C(O)C2O)NC(=O)C(C(O)C2CNC(=N)N2)NC(=O)C(Cc2ccc(OC3OC(CO)C(OC4OC(CO)C(O)C5OC(CC67CC8CC(CC(C8)C6)C7)OC45)C(O)C3O)cc2)NC1=O (stereo not shown) [Example 128]
MIC Streptococcus agalactiae (GC 4564) ([1]; Streptococcus agalactiae (GC 4564)): 0.25 µg/mL (≈ 0.172 µM) | MIC Streptococcus pneumoniae (ATCC 6301) ([1]; Streptococcus pneumoniae (ATCC 6301)): 0.25 µg/mL (≈ 0.172 µM) | MIC Streptococcus pneumoniae (GC 1894) ([1]; Streptococcus pneumoniae (GC 1894)): <0.06 µg/mL | MIC Streptococcus pneumoniae (GC 4565) ([1]; Streptococcus pneumoniae (GC 4565)): 0.12 µg/mL (≈ 0.0824 µM) | MIC Streptococcus pyogenes (GC 4563) ([1]; Streptococcus pyogenes (GC 4563)): 0.5 µg/mL (≈ 0.344 µM) | MIC Streptococcus pneumoniae (ATCC 6301) ([1]; strain ATCC 6301): 0.25 µg/mL (≈ 0.172 µM) | MIC Streptococcus pneumoniae (GC 1894) ([1]; strain GC 1894): <0.06 µg/mL | MIC Streptococcus pyogenes (GC 4563) ([1]; strain GC 4563): 0.5 µg/mL (≈ 0.344 µM) | MIC Streptococcus agalactiae (GC 4564) ([1]; strain GC 4564): 0.25 µg/mL (≈ 0.172 µM) | MIC Streptococcus pneumoniae (GC 4565) ([1]; strain GC 4565): 0.12 µg/mL (≈ 0.0824 µM) | MIC Staphylococcus aureus (ATCC 29213) [2]: 2 µg/mL (≈ 1.37 µM) | MIC Staphylococcus aureus (GC 1131) [2]: 4 µg/mL (≈ 2.75 µM) | MIC Staphylococcus aureus (GC 3051) [2]: 2 µg/mL (≈ 1.37 µM) | MIC Staphylococcus aureus (GC 3053) [2]: 2 µg/mL (≈ 1.37 µM) | MIC Staphylococcus aureus (GC 4541) [2]: 2 µg/mL (≈ 1.37 µM) | MIC Staphylococcus aureus (GC 4542) [2]: 2 µg/mL (≈ 1.37 µM) | MIC Staphylococcus aureus (GC 4544) [2]: 4 µg/mL (≈ 2.75 µM) | MIC Staphylococcus aureus (GC 4545) [2]: 2 µg/mL (≈ 1.37 µM) | MIC Staphylococcus aureus (GC 1131) ([2]; inoculum 5×10^5 CFU/mL, strain GC 1131): 4 µg/mL (≈ 2.75 µM) | MIC Staphylococcus aureus (ATCC 29213) ([2]; strain ATCC 29213): 2 µg/mL (≈ 1.37 µM) | MIC Staphylococcus aureus (GC 3051) ([2]; strain GC 3051): 2 µg/mL (≈ 1.37 µM) | MIC Staphylococcus aureus (GC 3053) ([2]; strain GC 3053): 2 µg/mL (≈ 1.37 µM) | MIC Staphylococcus aureus (GC 4541) ([2]; strain GC 4541): 2 µg/mL (≈ 1.37 µM) | MIC Staphylococcus aureus (GC 4542) ([2]; strain GC 4542): 2 µg/mL (≈ 1.37 µM) | MIC Staphylococcus aureus-SMITH (GC 4543) ([2]; strain GC 4543): 2 µg/mL (≈ 1.37 µM) | MIC Staphylococcus aureus (GC 4544) ([2]; strain GC 4544): 4 µg/mL (≈ 2.75 µM) | MIC Staphylococcus aureus (GC 4545) ([2]; strain GC 4545): 2 µg/mL (≈ 1.37 µM) | MIC Staphylococcus haemolyticus (GC 4546) ([2]; strain GC 4546): 2 µg/mL (≈ 1.37 µM) | MIC Coagulase Negative Staphylococcus (GC 4547) ([2]; strain GC 4547): 4 µg/mL (≈ 2.75 µM) | MIC Coagulase Negative Staphylococcus (GC 4548) ([2]; strain GC 4548): 2 µg/mL (≈ 1.37 µM) | MIC Coagulase Negative Staphylococcus (GC 4549) ([2]; strain GC 4549): 2 µg/mL (≈ 1.37 µM) | MIC Coagulase Negative Staphylococcus (GC 4551) ([2]; strain GC 4551): 4 µg/mL (≈ 2.75 µM) | MIC Coagulase Negative Staphylococcus (GC 6257) ([2]; strain GC 6257): 2 µg/mL (≈ 1.37 µM) | MIC Staphylococcus aureus-SMITH (GC 4543) ([2]; strain SMITH GC 4543): 2 µg/mL (≈ 1.37 µM) | MIC Escherichia coli (ATCC 25922) ([3]; strain ATCC 25922): 32 µg/mL (≈ 22 µM) | MIC Escherichia coli (GC 4559) ([3]; strain GC 4559): 32 µg/mL (≈ 22 µM) | MIC Escherichia coli (GC 4560) ([3]; strain GC 4560): 4 µg/mL (≈ 2.75 µM) | MIC Enterococcus avium (GC 4558) ([4]; Enterococcus avium (GC 4558)): 4 µg/mL (≈ 2.75 µM) | MIC Enterococcus faecalis (ATCC 29212) ([4]; Enterococcus faecalis (ATCC 29212)): 4 µg/mL (≈ 2.75 µM) | MIC Enterococcus faecalis (GC 2242) ([4]; Enterococcus faecalis (GC 2242)): 4 µg/mL (≈ 2.75 µM) | MIC Enterococcus faecalis (GC 2691) ([4]; Enterococcus faecalis (GC 2691)): 4 µg/mL (≈ 2.75 µM) | MIC Enterococcus faecalis (GC 3059) ([4]; Enterococcus faecalis (GC 3059)): 4 µg/mL (≈ 2.75 µM) | MIC Enterococcus faecalis (GC 4552) ([4]; Enterococcus faecalis (GC 4552)): 4 µg/mL (≈ 2.75 µM) | MIC Enterococcus faecalis (GC 4553) ([4]; Enterococcus faecalis (GC 4553)): 4 µg/mL (≈ 2.75 µM) | MIC Enterococcus faecalis (GC 4554) ([4]; Enterococcus faecalis (GC 4554)): 4 µg/mL (≈ 2.75 µM) | MIC Enterococcus faecalis (GC 6189) ([4]; Enterococcus faecalis (GC 6189)): 4 µg/mL (≈ 2.75 µM) | MIC Enterococcus faecium (GC 2243) ([4]; Enterococcus faecium (GC 2243)): 4 µg/mL (≈ 2.75 µM) | MIC Enterococcus faecium (GC 4556) ([4]; Enterococcus faecium (GC 4556)): 4 µg/mL (≈ 2.75 µM) | MIC Enterococcus faecium (GC 4557) ([4]; Enterococcus faecium (GC 4557)): 4 µg/mL (≈ 2.75 µM) | MIC Enterococcus faecalis (ATCC 29212) ([4]; strain ATCC 29212): 4 µg/mL (≈ 2.75 µM) | MIC Enterococcus faecalis (GC 2242) ([4]; strain GC 2242): 4 µg/mL (≈ 2.75 µM) | MIC Enterococcus faecium (GC 2243) ([4]; strain GC 2243): 4 µg/mL (≈ 2.75 µM) | MIC Enterococcus faecalis (GC 2691) ([4]; strain GC 2691): 4 µg/mL (≈ 2.75 µM) | MIC Enterococcus faecalis (GC 3059) ([4]; strain GC 3059): 4 µg/mL (≈ 2.75 µM) | MIC Enterococcus faecalis (GC 4552) ([4]; strain GC 4552): 4 µg/mL (≈ 2.75 µM) | MIC Enterococcus faecalis (GC 4553) ([4]; strain GC 4553): 4 µg/mL (≈ 2.75 µM) | MIC Enterococcus faecalis (GC 4554) ([4]; strain GC 4554): 4 µg/mL (≈ 2.75 µM) | MIC Enterococcus faecium (GC 4556) ([4]; strain GC 4556): 4 µg/mL (≈ 2.75 µM) | MIC Enterococcus faecium (GC 4557) ([4]; strain GC 4557): 4 µg/mL (≈ 2.75 µM) | MIC Enterococcus avium (GC 4558) ([4]; strain GC 4558): 4 µg/mL (≈ 2.75 µM) | MIC Enterococcus faecalis (GC 6189) ([4]; strain GC 6189): 4 µg/mL (≈ 2.75 µM)
